# Assay results reported in patent US8552013B2, “Heterocyclic compounds based on N6-substituted adenine, methods of their preparation, their use for preparation of drugs, cosmetic preparations and growth regulators, pharmaceutical preparations, cosmetic preparations and growth regulators containing these compounds” (USTAV Experimentalni Botaniky Akademie Ved Ceske Republiky, priority 2001, dated 2013).
# Columns and labels:
# B16-F0 melanoma = assay: Calcein AM cytotoxicity, B16-F0; format: cell-based; conditions: Mus musculus, B16F0, 72 h, read-out: IC 50, B16-F0
# Text: One of the parameters used, as the basis for cytotoxicity assays, is the metabolic activity of viable cells. For example, a microtiter assay, which uses the Calcein AM, is now widely used to quantitate cell proliferation and cytotoxicity. For instance, this assay is used in drug screening programs and in chemosensitivity testing. Because only metabolically active cells cleave Calcein AM, these assays detect viable cells exclusively. The quantity of reduced Calcein AM corresponds to the number of vital cells in the culture.
# Human T-lymphoblastic leukemia cell line CEM; promyelocytic HL-60 and monocytic U937 leukemias; breast carcinoma cell lines MCF-7, BT549, MDA-MB-231; glioblastoma U87MG cells; cervical carcinoma cells HELA; sarcoma cells U2OS and Saos2; hepatocellular carcinoma HepG2; mouse fibroblasts NIH3T3; mouse immortalized bone marrow macrophages B2.4 and B10A.4; P388D1 and L1210 leukemia; B16 and B16F10 melanomas were used for routine screening of compounds. The cells were maintained in Nunc/Corning 80 cm^2 plastic tissue culture flasks and cultured in cell culture medium (DMEM with 5 g/l glucose, 2 mM glutamine, 100 U/ml penicillin, 100 μg/ml streptomycin, 10% fetal calf serum and sodium bicarbonate).
# The cell suspensions that were prepared and diluted according to the particular cell type and the expected target cell density (2.500-30.000 cells per well based on cell growth characteristics) were added by pipette (80 μl) into 96/well microtiter plates. Inoculates were allowed a pre-incubation period of 24 hours at 37° C. and 5% CO2 for stabilisation. Four-fold dilutions of the intended test concentration were added at time zero in 20 μl aliquots to the microtiter plate wells. Usually, test compound was evaluated at six 4-fold dilutions. In routine testing, the highest well concentration was […], but it can be the matter of change dependent on the agent. All drug concentrations were examined in duplicates. Incubations of cells with the test compounds lasted for 72 hours at 37° C., in 5% CO2 atmosphere and 100% humidity. At the end of incubation period, the cells were assayed by using the Calcein AM. Ten microliters of the stock solution were pipetted into each well and incubated further for 1 hours. Fluorescence (FD) was measured with the Labsystem FIA Reader Fluoroscan Ascent (UK). The tumour cell survival (GI50) was calculated using the following equitation: TCS═(FDdrug exposed well/mean FDcontrol wells)×100%. The GI50 value, the drug concentration lethal to 50% of the tumour cells, was calculated from the obtained dose response curves (FIG. 1).
# MCF-7 cell line = assay: Apoptosis in MCF-7, Anexin FITC V / propidium iodide staining; format: cell-based, human; conditions: FIG. 3; 6 h, 20 μM apoptotic cells
# Description: A MCF-7, apoptotic cells: 6 h, 12, 20 μM, B MCF-7, secondary necrotic cells (i.e. necrosis following apoptosis), 12 h, 12, 40 μM; C MCF-7, necrotic cells, 24 h, 12, 40 μM. Anexin FITC V (Mol. Probes) and propidium iodide staining: anexin—green, PI—red.
# Analysed using “Olympus image analysis” after treatment of MCF-7 tumour cells by 6-(2-hydroxy-3-methoxybenzylamino)purine. A,B—control cells without treatment; C,D—apoptotic cells (condensation of chromatin); A,C—fluorescence microscopy; B,D—fluorescence image analysis.
# [1] = test system: human diploid fibroblasts (HCA cells); assay: Senescence, beta-galactosidase staining of human diploid fibroblasts; format: cell-based
# Method in brief: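 HCA fibroblasts at passages 25, 45 and 80 were fixed for 5 min at room temperature in 2% formaldehyde/0.2% glutaraldehyde. They were then incubated at 37 °C without CO2 for 1 to 16 hours with X-gal 1 mg/ml, 5 mM ferri- and ferrocyanide and 2 mM MgCl2 in citric/phosphate buffer, pH 6.0. Blue-stained cells were scored.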
# [2] = test system: Triticum aestivum cv. Hereward leaf tips; assay: Retention of chlorophyll in excised wheat leaf tips; format: in vivo; conditions: chlorophyll retention at the concentration with highest activity
# Method in brief: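 Tips of first leaves from 7-day wheat (cv. Hereward) seedlings kept on compound solutions (10^−8 to 10^−4 M, from DMSO stock) for 96 h in the dark at 25 °C. Chlorophyll extracted in 80% ethanol at 80 °C and read at 665 nm. Activity at the best concentration expressed relative to 10^−4 M BAP (100%), five replicates.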
# [3] = test system: Amaranthus caudatus cotyledon/hypocotyl explants; assay: Amaranthus bioassay, betacyanin content; format: in vivo; conditions: betacyanin content at the concentration with highest activity
smiles,measurement,setting,value
COc1cccc(CNc2ncnc3nc[nH]c23)c1O [6-(2-hydroxy-3-methoxybenzylamino)purine],IC50,B16-F0 melanoma,69 µM
same,apoptosis in MCF-7 tumour cells,MCF-7 cell line,induced apoptosis
same,SENESCENT CELLS (%) HCA25,[1]; passage 25,4%
same,SENESCENT CELLS (%) HCA45,[1]; passage 45,3%
same,SENESCENT CELLS (%) HCA80,[1]; passage 80,20%
same,Activity (%) [10^−4 mol · l^−1 BAP = 100%],[2],34 (±5) %
same,activity (%) [10^−5 mol · l^−1 BAP = 100%],[3],19 (±3) %
